Measured values taken from PubChem BioAssay (NCI).
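1) Cells in 96-well plates. 2) Compound, 48 h, 5 concentrations. 3) Linear interpolation between surrounding doses. 4) Unreached endpoint = highest concentration. Abbreviation: GI50, concentration required for 50% inhibition of growth. Definition used: TGI = concentration required for complete inhibition of growth.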

Assays:
Experiment in all cases: NCI-60 cell line screen, 48 h
[1] = system: HCC-2998 colon
[2] = system: HT29 colon
[3] = system: SF-295 CNS
[4] = system: BT-549 breast
[5] = system: CAKI-1 renal
[6] = system: SF-268 CNS
[7] = system: KM12 colon
[8] = system: HCT-15 colon
[9] = system: MOLT-4 leukemia
[10] = system: M14 melanoma
[11] = system: DU-145 prostate
[12] = system: A498 renal

## FC(F)(F)C(C1=NC(C(F)(F)F)(C(F)(F)F)N=C(N2CCOCC2)O1)C(F)(F)F
[1]
  TGI: > 100 µM
[2]
  TGI: 57.8 µM
[3]
  TGI: 44.6 µM
[4]
  TGI: 56 µM
[5]
  TGI: 61.6 µM
[6]
  TGI: > 100 µM
[7]
  TGI: > 100 µM
[8]
  TGI: > 100 µM
[9]
  TGI: > 100 µM
[10]
  TGI: 60.5 µM
[11]
  TGI: > 100 µM

## C=CCOC1OC(CS(=O)(=O)O)C(O)C(O)C1O (centres undefined)
[1]
  TGI: > 100 µM
[12]
  TGI: > 100 µM
[2]
  TGI: > 100 µM
[3]
  TGI: > 100 µM
[4]
  TGI: > 100 µM
[5]
  TGI: > 100 µM
[7]
  TGI: > 100 µM
[8]
  TGI: > 100 µM
[9]
  TGI: > 100 µM
[10]
  TGI: > 100 µM
[11]
  TGI: > 100 µM

## COc1ccc2oc(=O)cc(C)c2c1
[1]
  TGI: > 100 µM
[12]
  TGI: > 100 µM
[2]
  TGI: > 100 µM
[3]
  TGI: > 100 µM
[4]
  TGI: > 100 µM
[5]
  TGI: > 100 µM
[6]
  TGI: > 100 µM
[7]
  TGI: > 100 µM
[9]
  TGI: > 100 µM
[10]
  TGI: > 100 µM
[11]
  TGI: > 100 µM

## C=CC(=O)N1CCN(c2nc(OC[C@@H]3CCCN3C)nc3c2CCN(c2cccc4cccc(C)c24)C3)C[C@@H]1CC#N
[3]
  GI50: 1.53 µM
  TGI: 2.9 µM
[4]
  GI50: 1.58 µM
  TGI: 3.08 µM
[5]
  GI50: 1.18 µM
  TGI: 2.46 µM
[8]
  GI50: 1.45 µM
  TGI: 2.92 µM
[10]
  GI50: 1.82 µM
  TGI: 3.57 µM

## Cc1ccc2cc3c(ccc4ccccc43)c3c2c1CC3
[1]
  TGI: > 100 µM
[12]
  GI50: > 100 µM
  TGI: > 100 µM
[2]
  TGI: > 100 µM
[3]
  TGI: > 100 µM
[4]
  TGI: > 100 µM
[5]
  TGI: > 100 µM
[6]
  TGI: > 100 µM
[7]
  TGI: > 100 µM
[8]
  TGI: > 100 µM
[9]
  TGI: > 100 µM
[10]
  TGI: > 100 µM
[11]
  TGI: > 100 µM

## CCCCCCCCCCCCCCCC[N+](C)(C)CCN(Cc1ccc(OC)cc1)c1ncccn1
[12]
  GI50: 1.69 µM
  TGI: 5.21 µM
[4]
  GI50: 2.43 µM
  TGI: 5.83 µM
[5]
  GI50: 8.14 µM
  TGI: 34 µM
[6]
  GI50: 1.39 µM
  TGI: 3.74 µM
[8]
  GI50: 18.6 µM
  TGI: 60.1 µM

## O=C(O)CSCC(=O)O
[12]
  TGI: > 100 µM
[2]
  TGI: > 100 µM
[3]
  TGI: > 100 µM
[4]
  TGI: > 100 µM
[5]
  TGI: > 100 µM
[6]
  TGI: > 100 µM
[7]
  TGI: > 100 µM
[8]
  TGI: > 100 µM
[9]
  TGI: > 100 µM
[10]
  TGI: > 100 µM
[11]
  TGI: > 100 µM

## CS/C(=N\C(=S)Nc1ccccc1)Nc1ccccc1
[1]
  TGI: 57 µM
[12]
  TGI: 81.5 µM
[2]
  TGI: 33.1 µM
[3]
  TGI: 97 µM
[5]
  TGI: 54.7 µM
[6]
  TGI: > 100 µM
[7]
  TGI: > 100 µM
[8]
  TGI: 58.1 µM
[9]
  TGI: 85.7 µM
[10]
  TGI: 96.1 µM

## Cc1nc(Nc2ccc(F)cc2)c2sc(=S)n(-c3ccc(F)cc3)c2n1
[1]
  TGI: 24.7 µM
[12]
  TGI: 33.4 µM
[2]
  TGI: 19.9 µM
[3]
  TGI: 27.3 µM
[4]
  TGI: 27.1 µM
[5]
  TGI: 35.5 µM
[6]
  TGI: 23 µM
[7]
  TGI: 28.2 µM
[8]
  TGI: 13.8 µM
[10]
  TGI: 15.5 µM
[11]
  TGI: 26.2 µM

## COc1cc2nc(-c3cccs3)nc(N3C(c4ccc(O)cc4)=NNC(=O)c4ccccc43)c2cc1OC
[1]
  TGI: 38.5 µM
[12]
  TGI: > 100 µM
[2]
  TGI: 67.9 µM
[3]
  TGI: 39.4 µM
[4]
  TGI: 42.8 µM
[5]
  TGI: 43.9 µM
[6]
  TGI: 77.4 µM
[7]
  TGI: > 100 µM
[8]
  TGI: > 100 µM
[10]
  TGI: 79.4 µM
[11]
  TGI: > 100 µM
